Entries after “also recorded” stand apart in the source; their conditions may differ.
B1: VSD2/DMPC complex: recombinant refolded NaV1.7 VSD of repeat II, residues 732–860 (UniProt ID Q15858-3), reconstituted into DMPC vesicles (protein)
chain: DPFVDLAITICIVLNTLFMAMEHHPMTEEFKNVLAIGNLVFTGIFAAEMVLKLIAMDPYEYFQVGWNIFDSLIVTLSLVELFLADVEGLSVLRSFRLLRVFKLAKSWPTLNMLIKIIGNSVGALGNLTL

Columns and labels:
[1] = system: mice; conditions: ref [9]; cited from earlier work
Excerpt: This system opens up possibilities for detailed biophysical studies of binding interactions with toxins and other drug candidates for the development of new non-addictive pain therapeutics targeting NaV1.7. In addition, because the protein is expressed in E. coli, it also enables the preparation of isotope-labeled samples or the introduction of unnatural amino acids for structural and functional studies.

[2] = system: full-length NaV1.7; conditions: cited from earlier work
[3] = system: F813A and D816A mutants of NaV1.7 VSD2 in DMPC vesicles; assay: MST binding to mutant VSD2 compared with WT (overlay, Figure S6); parameters: species or system human; conditions: F813A and D816A vs WT VSD2 in DMPC
Method: (Supplementary Material, Figure S5). […] Lastly, it is additional confirmation that our recombinant system captures details of the interactions that correspond to those with full-length channel in native membranes.
The analysis of the MST binding titrations was carried out with the NanoTemper analy sis software, and the relative fluo-rescence measurements and fitted binding cur ves were combined into a single graph to illustrate the rightshift (lower binding affinity) in both mutants. Based on this analysis, both Phe 813 and Asp 816 appear to play an important role in […]

[4] = Dynamic light scattering particle size; format: physicochemical; conditions: DLS, VSD2 in DMPC ~40 μM, fixed-angle, 25 °C, spherical geometry assumed
Method: A Brookhaven NanoBrook series instrument was used to perform dynamic light scattering (DLS). The sample in this experiment was the VSD in DMPC solution prepared as described above at a concentration of ~40 μM. Sample was placed into a 1 cm quartz cuvette, and fixed-angle DLS was performed at 25 °C. Measurements of fixed-angle scattering were averaged over time intervals and, therefore, gave the correlation function, which in turn yielded the particle size distribution (assuming exponential correlation), reported as diameter in nm. This processing was done using the NanoBrook instrument analysis software. Particle size analysis assumes spherical geometry.

| Molecule | analgesic effects in mice (in words) [1] | IC50 [2] [nM] | change in binding affinity for mutants (in words) [3] | mean particle diameter / size distribution maximum [4] |
| --- | --- | --- | --- | --- |
| CC[C@H](C)[C@@H]1NC(=O)[C@@H]2CSSC[C@@H]3NC(=O)[C@H](C(C)C)NC(=O)[C@H](CC(C)C)NC(=O)[C@H](CC(N)=O)NC(=O)[C@@H]4CCCN4C(=O)[C@H](CCCNC(=N)N)NC(=O)[C@H](CSSC[C@H](NC(=O)[C@@H](N)CC(=O)O)C(=O)N[C@@H](CC(C)C)C(=O)NCC(=O)N[C@@H](Cc4ccccc4)C(=O)N[C@@H](CCSC)C(=O)N[C@@H](CCCNC(=N)N)C(=O)N[C@@H](CCCCN)C(=O)N2)NC(=O)[C@H](CSSC[C@@H](C(=O)N[C@@H](CCCCN)C(=O)N[C@@H](Cc2ccc(O)cc2)C(=O)N[C@H](C(=O)N[C@@H](Cc2ccccc2)C(=O)O)C(C)C)NC(=O)[C@H](Cc2c[nH]c4ccccc24)NC(=O)[C@H](CCCCN)NC(=O)[C@H](Cc2c[nH]cn2)NC(=O)[C@H]([C@@H](C)O)NC(=O)[C@H](CCCNC(=N)N)NC(=O)[C@H](CO)NC3=O)NC(=O)[C@H](CCCCN)NC(=O)[C@H](CC(=O)O)NC(=O)[C@H](CC(N)=O)NC(=O)[C@H](CC(=O)O)NC(=O)[C@@H]2CCCN2C1=O [GpTx-I] | analgesic effects superior to morphine in mice; also recorded: exhibits analgesic effects in mice | 10 | decreases in GpTx-I binding affinity; also recorded: substantial reduction in binding affinity |  |
| B1 |  |  |  | roughly 80 nm |

Reference: PMC8541342, “Expression, Purification and Refolding of a Human NaV1.7 Voltage Sensing Domain with Native-like Toxin Binding Properties” (Toxins, 2021)
